Test results: PMC5324278, “Novel synthetic analogues of avian β-defensin-12: the role of charge, hydrophobicity, and disulfide bridges in biological functions” (BMC Microbiology, 2017)
Bridge positions count the residues as written; N and C are the ends. Ends that are not written are not given here.

What was measured:
[1] = test system: S. Typhimurium (ATCC 14028); format: cell-based, Salmonella enteric serovar Typhimurium; conditions: triplicate; for MIC-ls S. Typhimurium (ATCC 14028): 100× diluted Muller Hinton II broth, 5 mM NaCl; for MIC-ls S. Typhimurium (ATCC 14028) / MIC S. Typhimurium (ATCC 14028): 5 × 10^5 CFU/ml, 37 °C, 24 h; for MIC S. Typhimurium (ATCC 14028): CLSI, standard Muller Hinton II broth; for MBC-ls S. Typhimurium (ATCC 14028): sub-culture of clear MIC-ls wells on LB agar, lowest concentration inhibiting more than 99% of growth
Protocol: (§1) The minimum inhibitory concentrations (MIC) of AvBDs were determined according to the guidelines of the Clinical and Laboratory Standards Institute (CLSI). The Muller Hinton II broth used in standard MIC assays contained 20–25 mg/L of calcium and 10–12.5 mg/L of magnesium. Modified MICs of AvBDs were also determined under a low-salt and low-nutrient condition by using 100× diluted Muller Hinton II broth containing 0.2 mg/L of calcium, 0.1 mg/L magnesium and 5 mM (292 mg/L) NaCl. MIC obtained under the low-salt and low-nutrient condition was referred to as MIC-ls. AvBD peptides were two-fold serially diluted (2 to 256 μg/ml) in a 96-well microtiter plate. An equal volume (μl) of bacterial suspension was added to each well of the plate. The final bacterial concentration in the wells was 5 × 10^5 CFU/ml. […] To complement MIC-ls assays, the minimum bactericidal concentrations (MBC) were evaluated by sub-culturing the contents of the first two clear wells obtained in the MIC-ls assay onto LB agar plates. All assays were conducted in triplicate. The lowest peptide concentration inhibiting more than 99% of bacterial growth was defined as MBC-ls. AvBD analogues were regarded as bactericidal if the MBC was no more than four times the MIC [29].

[2] = test system: avian and mammalian cell lines; conditions: previous findings; cited from earlier work
Protocol: Data on the highest peptide concentration (256 μg/ml) at various exposure times were presented in Additional file 1: Figure S1. The results were consistent with our previous findings that AvBD-6 and AvBD-12 were non-cytotoxic to avian and mammalian cell lines.

[3] = test system: Salmonella enteric serovar Typhimurium (ATCC 14028); format: cell-based; conditions: peptide 16 μg/ml; 2 h at 37 °C; 100-fold diluted Mueller Hinton II broth with 5 mM NaCl; colony count; n = 3
Protocol: (§2) Escherichia coli (ATCC 25922), Pseudomonas aeruginosa (ATCC 27853), Salmonella enteric serovar Typhimurium (ATCC 14028) and Staphylococcus aureus (ATCC 29213) were used to assess the antimicrobial activity of AvBD analogues. All bacterial strains were grown on Luria-Bertani (LB) agar plates or Trypticase Soy Agar with 5% Sheep Blood (TSA, Thermo Fisher Scientific) plates at 37 °C. Antimicrobial activity was determined by a colony counting assay. In brief, bacteria were resuspended in 100-fold diluted Mueller Hinton II broth with 5 mM NaCl (minimal growth medium) to obtain a final bacterial concentration of 2 × 10^5 CFU/ml. Twenty-five microliters of bacterial suspension and 25 μl of AvBD analogue solution were mixed in the wells of a 96-well polypropylene microtiter plate (Nunc™, Thermo Fisher Scientific). The final peptide concentrations were 2, 4, 8, 16, 32, 64 and 128 μg/ml. The minimal growth medium without AvBD peptide was included as a negative control. The bacterial-peptide mixtures were incubated at 37 °C for 2 h, ten-fold serially diluted and plated on LB agar plates. The numbers of bacteria colonies were enumerated after 16 h of incubation at 37 °C. Antimicrobial activity was expressed as percent of killing using the following formula: (CFUcontrol - CFUtreated) / CFUcontrol × 100%. To assess the resistance of AvBD analogues to sodium chloride (NaCl), antimicrobial assays were carried out in the presence of 5 mM, 50 mM, 100 mM or 150 mM NaCl. All assays were performed in triplicate.

[4] = test system: Escherichia coli (ATCC 25922); format: cell-based; conditions: peptide 16 μg/ml; 2 h at 37 °C; 100-fold diluted Mueller Hinton II broth with 5 mM NaCl; colony count; n = 3
Protocol: as §2

[5] = test system: Pseudomonas aeruginosa (ATCC 27853); format: cell-based; conditions: peptide 16 μg/ml; 2 h at 37 °C; 100-fold diluted Mueller Hinton II broth with 5 mM NaCl; colony count; n = 3
Protocol: as §2

[6] = test system: Staphylococcus aureus (ATCC 29213); format: cell-based; conditions: peptide 16 μg/ml; 2 h at 37 °C; 100-fold diluted Mueller Hinton II broth with 5 mM NaCl; colony count; n = 3
Protocol: as §2

[7] = test system: P. aeruginosa (ATCC 27853); format: cell-based, Pseudomonas aeruginosa; conditions: triplicate; for MIC-ls P. aeruginosa (ATCC 27853): 100× diluted Muller Hinton II broth, 5 mM NaCl; for MIC-ls P. aeruginosa (ATCC 27853) / MIC P. aeruginosa (ATCC 27853): 5 × 10^5 CFU/ml, 37 °C, 24 h; for MIC P. aeruginosa (ATCC 27853): CLSI, standard Muller Hinton II broth; for MBC-ls P. aeruginosa (ATCC 27853): sub-culture of clear MIC-ls wells on LB agar, lowest concentration inhibiting more than 99% of growth
Protocol: as §1

[8] = test system: JAWSII cells; test: MTT cell cytotoxicity assay; format: cell-based, murine; conditions: 256 μg/ml; 4, 12, 24 and 48 hours; Student t-test treated vs untreated; n = 3; Figure S1
Protocol: Chicken macrophage cell lines MQ-NCSU and HD11 were maintained in RPMI-1640 media supplemented with 10% fetal bovine serum (FBS), 2% chicken serum, 100 U/ml penicillin and 100 μg/ml streptomycin (Sigma-Aldrich) at 37 °C in humidified air with 5% CO2. CHO-K1 cells were cultured in the same media without 2% chicken serum. For CCR2-transfected CHO-K1 cells, the medium was supplemented with 500 μg/ml G418 was added (Sigma-Aldrich). Murine immature dendritic cell line JAWSII (ATCC CRL-11904™) was cultured in Alpha minimum essential medium containing 4 mM L-glutamine, 1 mM sodium pyruvate, 5 ng/ml murine Granulocyte macrophage colony-stimulating factor (GM-CSF), 20% FBS, 100 U/ml penicillin and 100 μg/ml streptomycin at 37 °C in humidified air with 5% CO2. The cell cytotoxicity was determined using the MTT (3-(4, 5-dimethylthiazol-2-yl)-2, 5-diphenyltetrazolium bromide metabolic activity assay according to the manufacturer’s instruction (Thermo Fisher Scientific). Briefly, cells (5 × 10^3 cells/well) were seeded in 96-well tissue culture plates, incubated overnight and treated with AvBDs at concentrations of 4, 16, 64 and 256 μg/ml for 4, 12, 24 and 48 h at 37 °C. After treatment, 20 μl of 12 mM MTT solution was added to each well. The plate was incubated for 4 h and read at 540 nm. Viability was expressed as percentage of viable cells relative to the untreated control. […]

[9] = test system: MQ-NCSU cells; test: MTT cell cytotoxicity assay; format: cell-based, chicken; conditions: 256 μg/ml; 4, 12, 24 and 48 hours; Student t-test treated vs untreated; n = 3; Figure S1
Protocol: (§3) Chicken macrophage cell lines MQ-NCSU and HD11 were maintained in RPMI-1640 media supplemented with 10% fetal bovine serum (FBS), 2% chicken serum, 100 U/ml penicillin and 100 μg/ml streptomycin (Sigma-Aldrich) at 37 °C in humidified air with 5% CO2. CHO-K1 cells were cultured in the same media without 2% chicken serum. For CCR2-transfected CHO-K1 cells, the medium was supplemented with 500 μg/ml G418 was added (Sigma-Aldrich). Murine immature dendritic cell line JAWSII (ATCC CRL-11904™) was cultured in Alpha minimum essential medium containing 4 mM L-glutamine, 1 mM sodium pyruvate, 5 ng/ml murine Granulocyte macrophage colony-stimulating factor (GM-CSF), 20% FBS, 100 U/ml penicillin and 100 μg/ml streptomycin at 37 °C in humidified air with 5% CO2. The cell cytotoxicity was determined using the MTT (3-(4, 5-dimethylthiazol-2-yl)-2, 5-diphenyltetrazolium bromide metabolic activity assay according to the manufacturer’s instruction (Thermo Fisher Scientific). Briefly, cells (5 × 10^3 cells/well) were seeded in 96-well tissue culture plates, incubated overnight and treated with AvBDs at concentrations of 4, 16, 64 and 256 μg/ml for 4, 12, 24 and 48 h at 37 °C. After treatment, 20 μl of 12 mM MTT solution was added to each well. The plate was incubated for 4 h and read at 540 nm. Viability was expressed as percentage of viable cells relative to the untreated control. The experiments were performed in triplicate.

[10] = test system: HD11 cells; test: MTT cell cytotoxicity assay; format: cell-based, chicken; conditions: 256 μg/ml; 4, 12, 24 and 48 hours; Student t-test treated vs untreated; n = 3; Figure S1
Protocol: as §3

[11] = test system: S. aureus (ATCC 29213); format: cell-based, Staphylococcus aureus; conditions: triplicate; for MIC-ls S. aureus (ATCC 29213): 100× diluted Muller Hinton II broth, 5 mM NaCl; for MIC-ls S. aureus (ATCC 29213) / MIC S. aureus (ATCC 29213): 5 × 10^5 CFU/ml, 37 °C, 24 h; for MIC S. aureus (ATCC 29213): CLSI, standard Muller Hinton II broth; for MBC-ls S. aureus (ATCC 29213): sub-culture of clear MIC-ls wells on LB agar, lowest concentration inhibiting more than 99% of growth
Protocol: as §1

[12] = test system: CHO-K1 cells; test: MTT cell cytotoxicity assay; format: cell-based; conditions: 256 μg/ml; 4, 12, 24 and 48 hours; Student t-test treated vs untreated; n = 3; Figure S1
Protocol: as §3

[13] = test system: E. coli (ATCC 25922); format: cell-based, Escherichia coli; conditions: triplicate; for MIC-ls E. coli (ATCC 25922): 100× diluted Muller Hinton II broth, 5 mM NaCl; for MIC-ls E. coli (ATCC 25922) / MIC E. coli (ATCC 25922): 5 × 10^5 CFU/ml, 37 °C, 24 h; for MIC E. coli (ATCC 25922): CLSI, standard Muller Hinton II broth; for MBC-ls E. coli (ATCC 25922): sub-culture of clear MIC-ls wells on LB agar, lowest concentration inhibiting more than 99% of growth
Protocol: as §1

Sequence	MIC-ls S. Typhimurium (ATCC 14028) [1] [µg/mL]	MIC S. Typhimurium (ATCC 14028) [1] [µg/mL]	MBC-ls S. Typhimurium (ATCC 14028) [1] [µg/mL]	cytotoxicity to avian and mammalian cell lines [2]	MIC-ls P. aeruginosa (ATCC 27853) [7] [µg/mL]	MIC P. aeruginosa (ATCC 27853) [7] [µg/mL]	MBC-ls P. aeruginosa (ATCC 27853) [7] [µg/mL]	metabolic activity (viability relative to untreated control), JAWSII [8]	metabolic activity (viability relative to untreated control), MQ-NCSU [9]	metabolic activity (viability relative to untreated control), HD11 [10]	MIC-ls S. aureus (ATCC 29213) [11] [µg/mL]	MIC S. aureus (ATCC 29213) [11] [µg/mL]	MBC-ls S. aureus (ATCC 29213) [11] [µg/mL]	metabolic activity (viability relative to untreated control), CHO-K1 [12]	MIC-ls E. coli (ATCC 25922) [13] [µg/mL]	MIC E. coli (ATCC 25922) [13] [µg/mL]	MBC-ls E. coli (ATCC 25922) [13] [µg/mL]	other results
GPDSCNHDRGLCRVGNCNPGEYLAKYCFEPVILCCKPLSPTPTKT (disulfide 5-34, 12-27, 17-35) [AvBD-12, avian β-defensin-12]	128	>256	256	non-cytotoxic	128	>256	>256	No significant difference was found	No significant difference was found	No significant difference was found	256	>256	256	No significant difference was found	32	256	128	percent of killing of S. Typhimurium [3]: 47.3%; percent of killing of E. coli [4]: 74.4%; percent of killing of P. aeruginosa [5]: 35.5%; percent of killing of S. aureus [6]: 52.9%
SPIHACRYQRGVCIPGPCRWPYYRVGSCGSGLKSCCVRNRWA (disulfide 6-35, 13-28, 18-36) [AvBD-6, avian β-defensin-6, reference compound]	16	>256	64	non-cytotoxic	64	>256	128	No significant difference was found	No significant difference was found	No significant difference was found	256	256	256	No significant difference was found	4	128	16	–
